Laboratory results taken from patent publication US20140243415A1, “COMPOUNDS INHIBITING GALECTIN-1 EXPRESSION, CANCER CELL PROLIFERATION, INVASION, AND TUMORIGENESIS” (ONCOETHIX SA, priority 2011, published 2014).

Columns and labels:
Format in all cases: cell-based, human
MCF7-shWISP = experiment: Antiproliferative effects, shWISP model; conditions: MCF7-shWISP vs MCF7
Text: (§1) FIG. 2. Epithelial-to-mesenchymal differentiation and OTX-008 sensitivity. A—Correlations between galectin-1 (LGALS1) and vimentin, E-cadherin (CDH1) and N-cadherin (CDH2) relative mRNA expression. B—Correlations between OTX-008 IC50s and vimentin, E-cadherin (CDH1) and N-cadherin (CDH2) relative mRNA expression. C—Antiproliferative effects of OTX-008 in epithelial COLO205-S and mesenchymal COLO205-R colon cancer cells. D—Antiproliferative effects of OTX-008 in SNAIL-inducible colon cancer cell lines. E—Antiproliferative effects of OTX-008 in shWISP breast cancer cell lines.
(§2) Cell survival was determined using the MTT assay (3-[4,5-dimethylthiazol-2-yl]-2,5-diphenyltetrazolium bromide; Sigma, Saint-Quentin Fallavier, France). The conversion of yellow water-soluble tetrazolium MTT into purple insoluble formazan is catalyzed by mitochondrial dehydrogenases and used to estimate the number of viable cells. In brief, cells were seeded in 96-well tissue culture plates at a density of 2×10^3 cells/well. […] After incubation, the supernatant was discarded, insoluble formazan precipitates were dissolved in 0.1 ml of DMSO and the absorbance was measured at 560 nm by use of a microplate reader (Thermo, France). […] IC50's were determined as the halves of maximal inhibitory drug concentration for each cell line. […]

[1] = system: COL0205-S and COL0205-R cells; experiment: Antiproliferative effects, epithelial vs mesenchymal COLO205
Text: as §1, §2

p-AKT = experiment: Western blot of signaling in SQ20B cells; conditions: 3 μM OTX-008, 10 min to 24 h
Procedure: (§3) FIG. 3. Effects of OTX-008 on galectin-1 expression and localization. A—Western Blot of galectin-1 on SQ20B cells treated with 3 μM OTX-008 for 24 h, 48 h and 72 h. B and C—Immunofluorescence of galectin-1 on SQ20B cells treated with 3 μM OTX-008 for 24 and 48 h. B—OTX-008 treatment decreases galectin-1 immunostaining in SQ20B cells. C—Galectin-1 translocates into the nucleus after OTX-008 exposure. D—Western Blot of p-AKTser473, AKT, p-S6, p-ERK1/2, ERK and p-PKCα in SQ20B cells treated with 3 μM OTX-008 for 10 min, 1 h, 2 h, 5 h and 24 h.
(§4) Cells were lysed in buffer containing 50 mM HEPES (pH 7.6), 150 mM NaCl, 1% Triton X-100, 2 mM sodium vanadate, 100 mM NaF, and 0.4 mg/ml phenylmethylsulfonyl fluoride. Equal amounts of protein (30 μg/lane) were subjected to SDS-PAGE and transferred to nitrocellulose membranes. Membranes were blocked with 5% milk in 0.05% Tween 20/phosphate-buffered saline and then incubated with the primary antibody overnight. Membranes were then washed and incubated with the secondary antibody conjugated to horseradish peroxidase. Bands were visualized by using the enhanced chemiluminescence Western blotting detection system. Densitometric analysis was performed under conditions that yielded a linear response. The following antibodies were used: anti-p-cdc2 (tyr15), anti-p-wee1 (ser642), anti-p-p44/42 MAPK (thr202/tyr204), anti-p44/42, anti-p-AKT (ser473), anti-AKT, anti-p-S6 (ser235/236) (Cell Signaling, Saint Quentin Yvelines, France), anti-p-PKCα (ser657) (BD Biosciences, Le-Pont-de-Claix, France) and anti-galectin-1 (Abcam, Cambridge, Mass., USA). All antibodies were used at a 1:1000 dilution.
(§5) Intracytoplasmic galectin-1 was previously shown to stabilize intracellular GTP-Ras conformation, facilitating Ras downstream signaling. Signaling events following OTX-008 exposure in SQ20B cells displaying no EGFR, K-Ras, and B-Raf mutation were investigated (FIG. 5A).

p-S6 = experiment: Western blot of signaling in SQ20B cells; conditions: 3 μM OTX-008, 10 min to 24 h
Procedure: as §3, §4, §5

p-ERK1/2 = experiment: Western blot of signaling in SQ20B cells; conditions: 3 μM OTX-008, 10 min to 24 h
Procedure: as §3, §4, §5

CN(C)CCNC(=O)COc1c2cccc1Cc1cccc(c1OCC(=O)NCCN(C)C)Cc1cccc(c1OCC(=O)NCCN(C)C)Cc1cccc(c1OCC(=O)NCCN(C)C)C2 [OTX-008]
effect of WISP inhibition on sensitivity (MCF7-shWISP): marked resistance to high concentrations of the drug | activity in epithelial vs mesenchymal cells [1]: markedly more active in COL0205-S cells than in COL0205-R cells | AKT ser473 phosphorylation (p-AKT): transient activation of AKT^s473 followed by a complete and sustained inhibition of p-AKT | p-S6 (p-S6): complete and sustained inhibition | p-ERK1/2 activity (p-ERK1/2): progressively but sustainably inhibited p-ERK1/2 activity
